Test results from patent publication US10670605B2, “Cysteine reactive probes and uses thereof” (The Scripps Research Institute, priority 2015, dated 2020).

Experiments:
Experiment in all cases: Competitive isoTOP-ABPP, cell lysates
Format in all cases: binding
Settings in all cases: 500 μm
PCK2 C306 (Q16822) = molecular target: T1, PCK2 C306 (Q16822) (Homo sapiens, UniProt Q16822)
T1 sequence (Q16822 33-640): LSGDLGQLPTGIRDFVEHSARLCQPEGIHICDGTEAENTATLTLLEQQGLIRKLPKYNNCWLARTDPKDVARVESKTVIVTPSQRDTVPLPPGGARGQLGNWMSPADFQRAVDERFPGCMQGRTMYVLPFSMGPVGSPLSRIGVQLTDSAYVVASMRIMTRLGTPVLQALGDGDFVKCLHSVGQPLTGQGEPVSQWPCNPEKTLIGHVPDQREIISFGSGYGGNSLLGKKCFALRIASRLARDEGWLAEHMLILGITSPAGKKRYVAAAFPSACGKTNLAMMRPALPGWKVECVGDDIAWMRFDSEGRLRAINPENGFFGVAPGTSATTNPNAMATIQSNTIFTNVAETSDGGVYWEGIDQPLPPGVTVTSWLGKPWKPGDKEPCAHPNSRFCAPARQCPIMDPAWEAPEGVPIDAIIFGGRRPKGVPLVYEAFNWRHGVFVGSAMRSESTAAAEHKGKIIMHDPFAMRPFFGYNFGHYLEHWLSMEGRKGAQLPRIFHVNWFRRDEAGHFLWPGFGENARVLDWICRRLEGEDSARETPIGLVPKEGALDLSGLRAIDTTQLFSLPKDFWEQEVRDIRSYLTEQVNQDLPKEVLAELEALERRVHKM

PDIA6 C55 (Q15084) = molecular target: T2, PDIA6 C55 (Q15084) (Homo sapiens, UniProt Q15084)
T2 sequence (Q15084 20-440): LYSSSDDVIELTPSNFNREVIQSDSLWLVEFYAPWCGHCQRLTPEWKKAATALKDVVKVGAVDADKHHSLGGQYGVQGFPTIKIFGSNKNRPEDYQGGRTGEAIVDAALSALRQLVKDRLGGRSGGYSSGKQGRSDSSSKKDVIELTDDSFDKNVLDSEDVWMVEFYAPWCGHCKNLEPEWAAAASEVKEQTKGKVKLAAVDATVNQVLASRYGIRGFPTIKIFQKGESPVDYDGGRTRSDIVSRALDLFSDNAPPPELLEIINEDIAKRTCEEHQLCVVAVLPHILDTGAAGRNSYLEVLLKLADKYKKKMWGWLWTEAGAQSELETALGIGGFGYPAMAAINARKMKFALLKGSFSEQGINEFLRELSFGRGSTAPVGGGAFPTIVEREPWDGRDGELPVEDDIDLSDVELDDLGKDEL

ACAT1 C196 (P24752) = molecular target: T3, ACAT1 C196 (P24752) (Homo sapiens, UniProt P24752)
T3 sequence (P24752 34-427): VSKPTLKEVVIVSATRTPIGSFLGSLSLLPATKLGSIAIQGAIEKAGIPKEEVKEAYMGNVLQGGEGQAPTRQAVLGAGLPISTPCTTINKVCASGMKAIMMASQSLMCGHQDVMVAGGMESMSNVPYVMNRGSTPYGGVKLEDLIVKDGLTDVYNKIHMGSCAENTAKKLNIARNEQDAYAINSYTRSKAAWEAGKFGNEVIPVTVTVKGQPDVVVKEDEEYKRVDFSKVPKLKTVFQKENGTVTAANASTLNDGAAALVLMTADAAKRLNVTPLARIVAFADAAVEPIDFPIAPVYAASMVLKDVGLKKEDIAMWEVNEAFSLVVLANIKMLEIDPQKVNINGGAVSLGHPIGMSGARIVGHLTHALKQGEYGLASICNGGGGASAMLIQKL

isoTOP-ABPP reactivity ratio, Q16822_C306 (PCK2 C306 (Q16822); in-vitro_ramos_231) | isoTOP-ABPP reactivity ratio, Q15084_C55 (PDIA6 C55 (Q15084); in-vitro_ramos) | isoTOP-ABPP reactivity ratio, Q15084_C55 (PDIA6 C55 (Q15084); in-vitro_ramos_231) | isoTOP-ABPP reactivity ratio, P24752_C196 (ACAT1 C196 (P24752); in-vitro_ramos) | isoTOP-ABPP reactivity ratio, P24752_C196 (ACAT1 C196 (P24752); in-vitro_ramos_231) | isoTOP-ABPP reactivity ratio, Q16822_C306 (PCK2 C306 (Q16822); in-vitro_ramos) | isoTOP-ABPP reactivity profile ratio, Q16822_C306 (PCK2 C306 (Q16822); in-vitro_ramos) | isoTOP-ABPP reactivity profile ratio, Q15084_C55 (PDIA6 C55 (Q15084); in-vitro_ramos) | isoTOP-ABPP reactivity profile ratio, P24752_C196 (ACAT1 C196 (P24752); in-vitro_ramos) | isoTOP-ABPP reactivity profile ratio, Q16822_C306 (PCK2 C306 (Q16822); in-vitro_ramos_231) | isoTOP-ABPP reactivity profile ratio, Q15084_C55 (PDIA6 C55 (Q15084); in-vitro_ramos_231) | isoTOP-ABPP reactivity profile ratio, P24752_C196 (ACAT1 C196 (P24752); in-vitro_ramos_231) | Compound
1.0 | 1.3 | 1.0 | 1.3 | 1.0 |  |  |  |  |  |  |  | C=CC(=O)Nc1cc(F)c(N2CCN(C(=O)OC(C)(C)C)CC2)c(F)c1 [compound 38]
1.2 | 0.8 | 0.9 | 1.0 | 1.3 | 1.0 |  |  |  |  |  |  | Cc1ccc(C=C(C#N)C(=O)NCCN2CCOCC2)cc1 [compound 41]
 |  |  |  |  |  |  |  |  | 0.9 | 0.8 | 0.9 | C=CC(=O)N(c1ccccc1)C1CCCCC1 [compound 46]
 |  |  |  |  |  | 1.6 | 1.8 | 1.5 | 1.3 | 1.1 | 1.3 | O=C(CCl)Nc1ccc(-c2ccccc2)cc1 [compound 52]
 |  |  |  |  |  |  | 1.0 | 0.9 | 1.3 | 0.9 | 1.2 | C=CC(=O)N1CCC(Cc2ccccc2)CC1 [compound 53]

Further lines, the compound ahead of its results:

Compound | isoTOP-ABPP reactivity ratio, Q16822_C306 (PCK2 C306 (Q16822); in-vitro_ramos_231) | isoTOP-ABPP reactivity ratio, Q15084_C55 (PDIA6 C55 (Q15084); in-vitro_ramos) | isoTOP-ABPP reactivity ratio, Q15084_C55 (PDIA6 C55 (Q15084); in-vitro_ramos_231) | isoTOP-ABPP reactivity ratio, P24752_C196 (ACAT1 C196 (P24752); in-vitro_ramos) | isoTOP-ABPP reactivity ratio, P24752_C196 (ACAT1 C196 (P24752); in-vitro_ramos_231) | isoTOP-ABPP reactivity ratio, Q16822_C306 (PCK2 C306 (Q16822); in-vitro_ramos) | isoTOP-ABPP reactivity profile ratio, Q16822_C306 (PCK2 C306 (Q16822); in-vitro_ramos) | isoTOP-ABPP reactivity profile ratio, Q15084_C55 (PDIA6 C55 (Q15084); in-vitro_ramos) | isoTOP-ABPP reactivity profile ratio, P24752_C196 (ACAT1 C196 (P24752); in-vitro_ramos) | isoTOP-ABPP reactivity profile ratio, Q16822_C306 (PCK2 C306 (Q16822); in-vitro_ramos_231) | isoTOP-ABPP reactivity profile ratio, Q15084_C55 (PDIA6 C55 (Q15084); in-vitro_ramos_231) | isoTOP-ABPP reactivity profile ratio, P24752_C196 (ACAT1 C196 (P24752); in-vitro_ramos_231)
N#CC(=Cc1ccc(-c2ccccc2Cl)o1)C(N)=O [compound 42] |  |  |  |  |  |  | 0.8 | 0.9 | 0.8 |  |  | 
COc1cc(NC(=O)CCl)cc(OC)c1 [compound 43] |  |  |  |  |  |  |  | 20.0 | 2.3 | 3.3 | 20.0 | 2.4
O=C(CCl)N1CCc2cc(Br)ccc21 [compound 50] |  |  |  |  |  |  |  |  |  | 2.7 | 1.3 | 3.9
O=C(CCl)Nc1cccc2ncccc12 [compound 51] |  |  |  |  |  |  | 0.8 | 2.7 |  |  | 2.5 | 1.1
